{"source": "patent US20210137919A1", "about": "“PHARMACEUTICAL FORMULATIONS, METHOD FOR PRODUCING A PHARMACEUTICAL FORMULATION, AND MEDICAMENT COMPRISING SAME” (SmaWa GmbH, priority 2018, published 2021)", "origin": "cited, not measured here", "data": [{"smiles": "CN1CC(=O)N2[C@H](c3ccc4c(c3)OCO4)c3[nH]c4ccccc4c3C[C@@H]2C1=O", "note": "[tadalafil]", "values": [{"measurement": "solubility in water", "result": "2 to 3.2", "unit": "µg/mL"}]}]}
